Measurements as given in patent US20220119440A1, “PEPTIDE AND METHOD FOR MANUFACTURING SAME” (AGC Inc., priority 2019, published 2022).
Where two headings read alike, the source gives them in different places. Peptide text beside a SMILES is read from it. * marks the point of attachment. NHBn = c1ccc(CN*)cc1

Key:
[1] = MDCK-II assay (cell monolayer assay); type: in vitro ADME; details: dog
Protocol: (§1) Further, with respect to the peptides synthesized in Examples 14, 15 and 17 and Comparative Examples 5,6 and 8, MDCK-II assay was conducted. For the MDCK-II assay, propranolol (CAS No: 318-98-9) was used as a positive control (“PC”) and Norfloxacin (CAS No: 70458-96-7) as a negative control (“NC”).
MDCK-II cells were seeded on Cell Culture Inserts (Falcon) at 5.04×10^4 cells/mL, and 5 days after seeding, cell monolayer assay (MDCK-II assay) was conducted. The peptide stock solution was prepared at 2 mM in DMSO solution, and diluted with HBSS containing 20 mM of HEPES (pH 7.5) to prepare a 2 μM peptide solution using as a solvent 0.1% DMSO/HBSS (+), as a donor solution. The acceptor solution was a 0.1% DMSO solution using as a solvent HBSS (+) containing 20 mM of HEPES (pH 7.5). […] The peptide concentration was analyzed by LC/MS. The experiment was conducted repeatedly three times. The permeability (Papp) was calculated in accordance with the following formula.
A: filter area (0.3 cm^2) VB: basolateral well volume (0.75 cm^3) t: incubation time (s) (2 hours=7200 s) C0: initial concentration in apical chamber (2 μM) CB (t): basolateral compound concentration at time t

[2] = PAMPA (Parallel Artificial Membrane Permeability Assay); type: in vitro ADME
Protocol: as §1
Permeability of the peptides was evaluated by PAMPA. In the PAMPA, 300 μL of a 5% DMSO-containing PBS was added to the respective wells of an accepter plate (MultiScreen 96-well transport receiver plate, manufactured by Merck), and 150 μL of a peptide solution (20 μM) dissolved in 5% DMSO/PBS was added to the respective wells of a donor plate (MultiScreen-IP filter plate, 0.45 μm, manufactured by Merck). A dodecane solution of 1% lecithin (from soybean) was subjected to ultrasonic treatment for 30 minutes before use, and 5 μL of the solution was applied to the membrane support (PVDF) of the respective wells of the donor plate. The donor plate was placed on the acceptor plate, and the plates were left to stand in an incubator at 25° C. for 18 hours. The peptide concentration was determined by LC/MS. The experiment was conducted repeatedly three times. The permeability (Pe) was calculated in accordance with the following formulae.
A: filter area (0.3 cm^2) VD: volume of donor well (0.15 cm^3) VA: volume of acceptor well (0.3 cm^3) t: incubation time (s) (18 hours=64800 s) CD (t): compound concentration in donor well at time t CA (t): compound concentration in acceptor well at time t

[3] = MDCK-II monolayer, 2 μM peptide, apical side to basolateral side, 37° C., 5% CO2, 2 hours, repeated three times, read-out: Papp
[4] = peptide 20 μM in 5% DMSO/PBS, 1% lecithin in dodecane on PVDF, 25° C. for 18 hours, repeated three times, read-out: Pe

Papp A→B at 2 h, 2 μM ([1]; MDCK) [×10⁻⁶ cm/s] | Papp at 18 h, 20 μM [2] [×10⁻⁶ cm/s] | SMILES | Papp A→B at 2 h, 2 μM [1, 3] [×10⁻⁶ cm/s] | Papp at 18 h, 20 μM [2, 4] [×10⁻⁶ cm/s]
1.23 | – | CC(=O)N[C@@H](C)C(=O)N[C@@H](C)C(=O)NCc1ccccc1 [Comparative Example 5, Ac-L-Ala-L-Ala-NHBn, reference compound] (Ac-Ala-Ala-NHBn) | – | –
– | ≤ 0.003 | CC(=O)N[C@H](C(=O)N[C@@H](C)C(=O)N(C)C)C(C)C [Comparative Example 7, Ac-L-Val-L-Ala-NMe2, reference compound] (Ac-Val-Ala-NMe2) | – | –
7.12 | 0.07 | CC(=O)N[C@H](C(=O)N[C@@H](Cc1ccccc1)C(=O)NCC(C)C)C(C)C [Comparative Example 8, Ac-L-Val-L-Phe-iBu, reference compound] | – | –
– | – | CC(=O)NC(C(=O)N[C@@H](C)C(=O)NCc1ccccc1)C(F)(F)F (stereo partly drawn) [Example 14, Ac-D,L-Ala (F3)-L-Ala-NHBn] | 3.26 | –
– | – | CC(=O)NC(C(=O)N[C@@H](Cc1ccccc1)C(=O)NCC(C)C)C(F)(F)F (stereo partly drawn) [Example 15, Ac-D,L-Ala (F3)-L-Phe-iBu] | 9.86 | 0.19
– | – | CC(=O)NC(C(=O)N[C@@H](C)C(=O)N(C)C)C(C(F)(F)F)C(F)(F)F (stereo partly drawn) [Example 16, Ac-D,L-Val (F6)-L-Ala-NMe2] | – | 0.04
– | – | CC(=O)NC(C(=O)N[C@@H](Cc1ccccc1)C(=O)NCC(C)C)C(C(F)(F)F)C(F)(F)F (stereo partly drawn) [Example 17, Ac-D,L-Val (F6)-L-Phe-iBu] | 8.38 | 1.57
